Data: patent publication US7223403B2, “Method to prepare compositions comprising yeast treated with electromagnetic energy” (Ultra Biotech Limited, priority 2003, dated 2007)
Read-outs that look alike come from different tables or passages of the source.

Assays:
[1] = test system: kun ming murine brain cancer cell line B22; assay: kun ming mouse model of human brain cancer, growth of the tumor (Example 6); settings: B22 tumor-bearing mice, 30 consecutive days of treatment, sacrificed on 31st day; AY/NY 0.3 ml oral once per day, BCNU 0.8 mg/kg/day s.c.
Description: (§1) The biological composition comprising 10^8 cells per ml of activated and conditioned yeast cells of the strain Saccharomyces cerevisiae Hansen strain AS2.501 was prepared by the methods described in Section 5.1 and subsections therein.
The mice injected with tumor cells were immediately divided into 4 experimental groups of ten mice per group and one control group. The four experimental groups were triplicated (i.e., using a total of 120 mice in the experimental groups).
The mice received the biological compositions, untreated yeast cells, BCNU or saline on the same day as the tumor cells were transplanted. The mice in group CK2 also started receiving saline on the same day as the other four groups. The biological compositions, untreated yeast cells and saline were administered orally by a feeding tube and the BCNU by subcutaneous injection for 30 consecutive days. […] The weight of the mice and the weight of the tumor were determined by standard techniques.

[2] = test system: kun ming murine brain cancer cell line B22; settings: 2BCNU 1.2 mg/kg/day s.c.; for Number of live animals remaining in the groups after 30 days of treatment: 30 mice per group
Description: The survival time of mice after tumor injection and treatment was studied.
as §1
The animals were prepared in a similar manner as described in Section 6.1.
(§2) The mice injected with tumor cells were immediately divided into 4 experimental groups of ten mice per group and one control group. The four experimental groups were triplicated (i.e., using a total of 120 mice in the experimental groups). In group 2AY, the mice received 0.5 ml of the biological composition once per day. In group 2NY, the mice received 0.5 ml of the untreated yeast cells once per day. In group 2BCNU, the mice were injected subcutaneously with 1.2 mg of chloroethylnitrosourea (BCNU) per kg body weight per day. In group 2CK1, the mice received 0.5 ml of physiological saline once per day.
(§3) The mice received the biological compositions, untreated yeast cells, BCNU or saline on the same day as the tumor cells were transplanted. The mice in group 2CK2 also started receiving saline on the same day as the other four groups. The biological compositions, untreated yeast cells and saline were administered orally by a feeding tube and the BCNU by subcutaneous injection for 30 consecutive days. The mice were observed over 6 months from the day of tumor inoculation and survival was recorded. The weight of the mice and the weight of the tumor were determined by standard techniques.

[3] = test system: Wistar King rat brain cancer cell line WKS-1; assay: Wistar rat model of human brain cancer, growth of the tumor (Example 8); assay type: in vivo; settings: WKS-1 tumor-bearing rats, 30 consecutive days of treatment, sacrificed on 31st day; AY/NY 0.8 ml oral once per day, VCR 3 mg/kg/day i.v.
Description: The growth of the tumor in the rats was studied.
About 2×10^7 viable tumor cells of the Wistar King rat brain cancer type WKS-1 (obtainable from the Shanghai Medical University, Shanghai, China) in about 0.4 ml culture suspension were injected subcutaneously into the animals.
In group AY, the rats received 0.8 ml of the biological composition once per day. In group NY, the rats received 0.8 ml of the untreated yeast cells once per day. […] In group CK1, the rats received 0.8 ml of physiological saline once per day.
On the 31st day from tumor inoculation, the rats were sacrificed.

[4] = test system: Wistar King rat brain cancer cell line WKS-1; settings: 2VCR 4.5 mg/kg/day i.v.; for Number of live animals remaining in the groups after 30 days of treatment: 30 rats per group
Description: The survival time of rats after tumor injection and treatment was studied.
as §1
The animals were prepared in a similar manner as described in Section 8.1.
as §2, with “rats” for “mice”, “1.2” for “0.5”, “2VCR,” for “2BCNU,”, “intravenously” for “subcutaneously”, “4.5” for “1.2”, “[…] (VCR)” for “chloroethylnitrosourea (BCNU)”
as §3, with “The rats” for “The mice”, “cells, VCR,” for “cells, BCNU”, “the VCR” for “the BCNU”, “by intravenous” for “by subcutaneous”, “the rats” for “the mice”

[5] = mice that survived, observed over 6 months, 2AY/2NY 0.5 ml oral per day, 30 days
[6] = rats that survived, observed over 6 months, 2AY/2NY 1.2 ml oral per day, 30 days

## O=NN(CCCl)C(=O)NCCCl [BCNU, chloroethylnitrosourea]
[1]
  mean weight of mice and standard deviation: 18.4 ± 3.4 g
  mean weight of tumor nodules and standard deviation: 1.02 ± 0.52 mg
[2]; 0 month after cessation of treatment, 2AY/2NY 0.5 ml oral per day
  Number of live animals remaining in the groups after 30 days of treatment: 30
[2]; 1 month after cessation of treatment, 2AY/2NY 0.5 ml oral per day
  Number of live animals remaining in the groups after 30 days of treatment: 21
[2]; 2NY 0.5 ml oral per day, 30 days, observed over 6 months
  survival outcome during the experiment: all died during the experiment
[2]; 2 months after cessation of treatment, 2AY/2NY 0.5 ml oral per day
  Number of live animals remaining in the groups after 30 days of treatment: 15
[2]; 3 months after cessation of treatment, 2AY/2NY 0.5 ml oral per day
  Number of live animals remaining in the groups after 30 days of treatment: 4
[2]; 4 months after cessation of treatment, 2AY/2NY 0.5 ml oral per day
  Number of live animals remaining in the groups after 30 days of treatment: 0
[2]; 5 months after cessation of treatment, 2AY/2NY 0.5 ml oral per day
  Number of live animals remaining in the groups after 30 days of treatment: 0
[2]; 6 months after cessation of treatment, 2AY/2NY 0.5 ml oral per day
  Number of live animals remaining in the groups after 30 days of treatment: 0
[2]; [5]
  mean weight of mice and standard deviation: all animals dead
  mean weight of tumor nodules and standard deviation: all animals dead

## CC[C@]1(O)C[C@@H]2CN(CCc3c([nH]c4ccccc34)[C@@](C(=O)OC)(c3cc4c(cc3OC)N(C)[C@H]3[C@@](O)(C(=O)OC)[C@H](OC(C)=O)[C@]5(CC)C=CCN6CC[C@]43[C@@H]65)C2)C1 [VCR, vinblastine]
[3]
  mean weight of rats and standard deviation: 188.3 ± 8.3 g
  mean weight of tumor nodules and standard deviation: 2.87 ± 2.54 g
[4]; 0 month after cessation of treatment, 2AY/2NY 1.2 ml oral per day
  Number of live animals remaining in the groups after 30 days of treatment: 30
[4]; 1 month after cessation of treatment, 2AY/2NY 1.2 ml oral per day
  Number of live animals remaining in the groups after 30 days of treatment: 30
[4]; 2NY 1.2 ml oral per day, 30 days, observed over 6 months
  survival outcome during the experiment: all died during the experiment
[4]; 2 months after cessation of treatment, 2AY/2NY 1.2 ml oral per day
  Number of live animals remaining in the groups after 30 days of treatment: 30
[4]; 3 months after cessation of treatment, 2AY/2NY 1.2 ml oral per day
  Number of live animals remaining in the groups after 30 days of treatment: 17
[4]; 4 months after cessation of treatment, 2AY/2NY 1.2 ml oral per day
  Number of live animals remaining in the groups after 30 days of treatment: 7
[4]; 5 months after cessation of treatment, 2AY/2NY 1.2 ml oral per day
  Number of live animals remaining in the groups after 30 days of treatment: 3
[4]; 6 months after cessation of treatment, 2AY/2NY 1.2 ml oral per day
  Number of live animals remaining in the groups after 30 days of treatment: 0
[4]; [6]
  mean weight of rats and standard deviation: all animals dead
  mean weight of tumor nodules and standard deviation: all animals dead
